# pIC50: −log10 of the molar value.
# Molecular target: USP7 (Homo sapiens (Human), UniProt Q93009)
# Assay: USP7 Biochemical IC50 Assay
# Conditions: FLAG-USP7; enzyme and compound incubated 30 min at room temp; TAMRA labelled peptide-ubiquitin fluorescence polarisation substrate; read after 2 hr; read-out: IC50 range
# Description: The USP7 construct was PCR amplified and cloned into a pFLAG-CMV-6a vector (Sigma-Aldrich) with an N-terminal FLAG tag. HEK293T cells were transfected with FLAG-USP7 using TransIT-LT1 transfection reagent (Mirus) according to the manufacturer's instructions. Cells were harvested 40 hours after transfection. […] The resin was washed two times with low salt buffer plus protease inhibitors (complete mini, Roche) and phosphatase inhibitors (PhosSTOP mini, Roche) and one time with high salt buffer (20 mM Tris, pH 7.5, 500 mM NaCl, 0.5 mM EDTA, 5 mM beta-mercaptoethanol, protease inhibitors (complete mini, Roche) and phosphatase inhibitors (PhosSTOP mini, Roche). To elute the bound USP7, elution buffer (10 mM Tris, pH 7.5, 150 mM NaCl, 0.5 mM EDTA, 10% glycerol, 0.5% NP40, 5 mM beta-mercaptoethanol, 0.15 mg/ml 3×FLAG peptide (Sigma-Aldrich)) was added to the resin and incubated at 4° C. for 2.5 hours rotating. The resin was centrifuged at 4000 rpm for 30 seconds, and the supernatant containing purified FLAG-USP7 was removed and stored at −80° C.
# USP7 Biochemical IC50 Assay
# A typical 8-point dilution series would be 100, 30, 10, 3, 1, 0.3, 0.1, 0.03 μM final. […] Either 1 μl of 50% DMSO or diluted compound was added to the plate. USP7 was diluted in reaction buffer (20 mM Tris, pH 7.5, 100 mM NaCl, 0.05% Tween 20, 0.5 mg/ml BSA, 5 mM—beta mercaptoethanol) to the equivalent of 0.0025 μl/well and 10 μl of diluted USP7 was added to the compound. Enzyme and compound were incubated for 30 min at room temp. Reactions were initiated by the addition of 50 nM of TAMRA labelled peptide linked to ubiquitin via an iso-peptide bond as fluorescence polarisation substrate. Reactions were read immediately after addition of substrate and following a 2 hr incubation at room temperature. Readings were performed on a Pherastar Plus (BMG Labtech). λ Excitation 540 nm; λ Emission 590 nm.
# Chain of USP7 (Q93009 whole entry): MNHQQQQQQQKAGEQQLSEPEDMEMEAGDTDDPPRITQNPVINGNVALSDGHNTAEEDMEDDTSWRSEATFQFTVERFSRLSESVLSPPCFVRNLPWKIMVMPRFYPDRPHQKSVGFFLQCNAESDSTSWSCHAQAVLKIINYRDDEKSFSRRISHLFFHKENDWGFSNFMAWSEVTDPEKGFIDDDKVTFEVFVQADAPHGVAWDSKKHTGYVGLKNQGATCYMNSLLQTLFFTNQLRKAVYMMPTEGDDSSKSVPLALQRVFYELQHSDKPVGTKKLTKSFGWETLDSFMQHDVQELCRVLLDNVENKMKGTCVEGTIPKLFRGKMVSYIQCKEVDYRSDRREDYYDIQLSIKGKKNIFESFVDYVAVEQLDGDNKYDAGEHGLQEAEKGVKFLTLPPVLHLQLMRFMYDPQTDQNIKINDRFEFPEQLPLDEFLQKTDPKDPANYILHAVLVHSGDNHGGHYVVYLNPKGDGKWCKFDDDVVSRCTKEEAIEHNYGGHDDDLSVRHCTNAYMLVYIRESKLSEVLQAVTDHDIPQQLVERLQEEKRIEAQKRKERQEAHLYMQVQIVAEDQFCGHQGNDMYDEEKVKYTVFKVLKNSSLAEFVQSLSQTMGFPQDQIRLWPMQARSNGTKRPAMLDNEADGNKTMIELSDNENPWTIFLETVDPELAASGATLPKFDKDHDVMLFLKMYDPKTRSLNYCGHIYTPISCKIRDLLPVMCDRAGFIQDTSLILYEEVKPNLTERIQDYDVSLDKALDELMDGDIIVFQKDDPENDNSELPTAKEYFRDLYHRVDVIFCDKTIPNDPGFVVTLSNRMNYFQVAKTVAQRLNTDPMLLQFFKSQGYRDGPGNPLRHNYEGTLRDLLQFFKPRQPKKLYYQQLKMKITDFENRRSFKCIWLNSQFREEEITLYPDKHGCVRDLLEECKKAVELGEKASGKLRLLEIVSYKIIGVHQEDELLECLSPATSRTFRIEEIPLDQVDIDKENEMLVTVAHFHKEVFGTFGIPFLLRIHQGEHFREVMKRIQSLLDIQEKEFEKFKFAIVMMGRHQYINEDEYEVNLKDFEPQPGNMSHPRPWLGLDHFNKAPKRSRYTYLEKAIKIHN
row,SMILES,pIC50
1,"N#CN1Cc2cnn(-c3ccccc3F)c2C1 [Example 4, 1-(2-Fluorophenyl)-4,6-dihydropyrrolo[3,4-c]pyrazole-5(1H)-carbonitrile]",4.52 to 5.00
2,"N#CN1Cc2cnn(-c3ccc(C(N)=O)cc3)c2C1 [Example 5, 4-(5-Cyano-5,6-dihydropyrrolo[3,4-c]pyrazol-1(4H)-yl)benzamide]",4.52 to 5.00
3,"COc1cccc(-n2ncc3c2CN(C#N)C3)c1 [Example 7, 1-(3-Methoxyphenyl)-4,6-dihydropyrrolo[3,4-c]pyrazole-5(1H)-carbonitrile]",4.52 to 5.00
4,"N#CN1Cc2cnn(-c3cn(-c4ccccc4)cn3)c2C1 [Example 9, 1-(1-Phenyl-1H-imidazol-4-yl)-4,6-dihydropyrrolo[3,4-c]pyrazole-5(1H)-carbonitrile]",4.52 to 5.00
5,"Cc1nn(-c2ccccc2)c2c1CN(C#N)C2 [Example 10, 3-Methyl-1-phenyl-4,6-dihydropyrrolo[3,4-c]pyrazole-5(1H)-carbonitrile]",4.52 to 5.00
6,"N#CN1Cc2cnn(-c3cccc(C(=O)NCc4ccccc4)c3)c2C1 [Example 11, N-Benzyl-3-(5-cyano-5,6-dihydropyrrolo[3,4-c]pyrazol-1(4H)-yl)benzamide]",4.52 to 5.00
7,"CC(NC(=O)c1cccc(-n2ncc3c2CN(C#N)C3)c1)c1ccccc1 (stereo not shown) [Example 12, 3-(5-Cyano-5,6-dihydropyrrolo[3,4-c]pyrazol-1(4H)-yl)-N-(1-phenylethyl)benzamide]",4.52 to 5.00
8,"N#CN1Cc2cnn(-c3ccc(C(=O)NCc4ccccn4)cc3)c2C1 [Example 14, 4-(5-Cyano-5,6-dihydro-pyrrolo[3,4-c]pyrazol-1(4H)-yl)-N-(pyridin-2-ylmethyl)benzamide]",4.52 to 5.00
9,"CNC(=O)c1ccc(-n2ncc3c2CN(C#N)C3)cc1 [Example 15, 4-(5-Cyano-5,6-dihydropyrrolo[3,4-c]pyrazol-1(4H)-yl)-N-methylbenzamide]",4.52 to 5.00
10,"CNC(=O)c1cc(-n2ncc3c2CN(C#N)C3)ccc1OC [Example 18, 5-(5-Cyano-5,6-dihydropyrrolo[3,4-c]pyrazol-1(4H)-yl)-2-methoxy-N-methylbenzamide]",4.00 to 4.52
11,"N#CN1Cc2cnn(-c3cc(-c4ccccc4)n[nH]3)c2C1 [Example 20, 1-(3-Phenyl-1H-pyrazol-5-yl)-4,6-dihydropyrrolo[3,4-c]pyrazole-5(1H)-carbonitrile]",4.52 to 5.00
12,"N#CN1Cc2c(-c3ccccc3)nn(Cc3ccccc3)c2C1 [Example 24, 1-Benzyl-3-phenyl-4,6-dihydropyrrolo[3,4-c]pyrazole-5(1H)-carbonitrile]",4.52 to 5.00
13,"COc1ccc(C(C)C)cc1-c1nn(Cc2ccccc2)c2c1CN(C#N)C2 [Example 25, 1-Benzyl-3-(5-isopropyl-2-methoxyphenyl)-4,6-dihydropyrrolo[3,4-c]pyrazole-5(1H)-carbonitrile]",4.52 to 5.00
14,"N#CN1Cc2cnn(-c3cc(C(N)=O)n[nH]3)c2C1 [Example 28, 5-(5-Cyano-5,6-dihydropyrrolo[3,4-c]pyrazol-1(4H)-yl)-1H-pyrazole-3-carboxamide]",4.52 to 5.00
15,"N#CN1Cc2c(Nc3ccccn3)nn(-c3ccc(C(N)=O)cc3)c2C1 [Example 33, 4-(5-Cyano-3-(pyridin-2-ylamino)-5,6-dihydropyrrolo[3,4-c]pyrazol-1(4H)-yl)benzamide]",4.52 to 5.00
16,"CC(=O)NCc1nn(-c2ccccc2)c2c1CN(C#N)C2 [Example 36, N-((5-Cyano-1-phenyl-1,4,5,6-tetrahydropyrrolo[3,4-c]pyrazol-3-yl)methyl)acetamide]",4.52 to 5.00
17,"Cn1nccc1-c1n[nH]c2c1CN(C#N)C2 [Example 39, 3-(1-Methyl-1H-pyrazol-5-yl)-4,6-dihydropyrrolo[3,4-c]pyrazole-5(1H)-carbonitrile]",4.52 to 5.00
18,"N#CN1Cc2[nH]nc(-c3cccc(OC(F)(F)F)c3)c2C1 [Example 40, 3-(3-(Trifluoro-methoxy)phenyl)-4,6-dihydropyrrolo[3,4-c]pyrazole-5(1H)-carbonitrile]",4.52 to 5.00

# More lines, now with the values ahead:
row,pIC50,SMILES
1,4.52 to 5.00,"COc1ccc(-n2ncc3c2CN(C#N)C3)cc1 [Example 1, 1-(4-Methoxyphenyl)-4,6-dihydropyrrolo[3,4-c]pyrazole-5(1H)-carbonitrile]"
2,4.52 to 5.00,"N#CN1Cc2cnn(-c3ccccc3)c2C1 [Example 2, 1-Phenyl-4,6-dihydropyrrolo[3,4-c]pyrazole-5(1H)-carbonitrile]"
3,> 5.00,"N#CN1Cc2cnn(-c3ccc(F)cc3)c2C1 [Example 3, 1-(4-Fluorophenyl)-4,6-dihydropyrrolo[3,4-c]pyrazole-5(1H)-carbonitrile]"
4,> 5.00,"N#CN1Cc2cnn(-c3cnc4ccccc4c3)c2C1 [Example 6, 1-(Quinolin-3-yl)-4,6-dihydropyrrolo[3,4-c]pyrazole-5(1H)-carbonitrile]"
5,> 5.00,"N#CN1Cc2cnn(-c3cnn(-c4ccccc4)c3)c2C1 [Example 8, 1-(1-Phenyl-1H-pyrazol-4-yl)-4,6-dihydropyrrolo[3,4-c]pyrazole-5(1H)-carbonitrile]"
6,> 5.00,"N#CN1Cc2cnn(-c3cccc(C(=O)NCc4ccccn4)c3)c2C1 [Example 13, 3-(5-Cyano-5,6-dihydropyrrolo[3,4-c]pyrazol-1(4H)-yl)-N-(pyridin-2-ylmethyl)benzamide]"
7,> 5.00,"Cc1nn(-c2ccc(C(N)=O)cc2)c2c1CN(C#N)C2 [Example 16, 4-(5-Cyano-3-methyl-5,6-dihydropyrrolo[3,4-c]pyrazol-1(4H)-yl)benzamide]"
8,> 5.00,"Cn1ncc2cc(-n3ncc4c3CN(C#N)C4)ccc21 [Example 17, 1-(1-Methyl-1H-indazol-5-yl)-4,6-dihydropyrrolo[3,4-c]pyrazole-5(1H)-carbonitrile]"
9,> 5.00,"N#CN1Cc2cnn(-c3n[nH]c4ccccc34)c2C1 [Example 19, 1-(1H-Indazol-3-yl)-4,6-dihydropyrrolo[3,4-c]pyrazole-5(1H)-carbonitrile]"
10,> 5.00,"Cn1nc(-c2ccccc2)c2c1CN(C#N)C2 [Example 21, 1-Methyl-3-phenyl-4,6-dihydropyrrolo[3,4-c]pyrazole-5(1H)-carbonitrile]"
11,> 5.00,"Cn1nc2c(c1-c1ccccc1)CN(C#N)C2 [Example 22, 2-Methyl-3-phenyl-2,6-dihydropyrrolo[3,4-c]pyrazole-5(4H)-carbonitrile]"
12,> 5.00,"CC(C)n1nc(-c2ccccc2)c2c1CN(C#N)C2 [Example 23, 1-Isopropyl-3-phenyl-4,6-dihydropyrrolo[3,4-c]pyrazole-5(1H)-carbonitrile]"
13,> 5.00,"COc1ccc(C(C)C)cc1-c1n[nH]c2c1CN(C#N)C2 [Example 26, 3-(5-Isopropyl-2-methoxyphenyl)-4,6-dihydropyrrolo[3,4-c]pyrazole-5(1H)-carbonitrile]"
14,> 5.00,"Cc1ccc(F)c(-c2n[nH]c3c2CN(C#N)C3)c1 [Example 27, 3-(2-Fluoro-5-methylphenyl)-4,6-dihydropyrrolo[3,4-c]pyrazole-5(1H)-carbonitrile]"
15,> 5.00,"N#CN1Cc2[nH]nc(-c3ccccc3)c2C1 [Example 29, 3-Phenyl-4,6-dihydropyrrolo[3,4-c]pyrazole-5(1H)-carbonitrile]"
16,> 5.00,"Cn1nc2c(c1Nc1cc3ccccc3cn1)CN(C#N)C2 [Example 30, 3-(Isoquinolin-3-ylamino)-2-methyl-2,6-dihydropyrrolo[3,4-c]pyrazole-5(4H)-carbonitrile]"
17,> 5.00,"N#CN1Cc2[nH]nc(Nc3cc4ccccc4cn3)c2C1 [Example 31, 3-(Isoquinolin-3-ylamino)-4,6-dihydropyrrolo[3,4-c]pyrazole-5(1H)-carbonitrile]"
18,> 5.00,"N#CN1Cc2c(Nc3cc4ccccc4cn3)nn(Cc3ccccc3)c2C1 [Example 32, 1-Benzyl-3-(isoquinolin-3-ylamino)-4,6-dihydropyrrolo[3,4-c]pyrazole-5(1H)-carbonitrile]"
19,> 5.00,"N#CN1Cc2[nH]nc(CNC(=O)c3cc(-c4ccccc4)n[nH]3)c2C1 [Example 34, N-((5-Cyano-1,4,5,6-tetrahydropyrrolo[3,4-c]pyrazol-3-yl)methyl)-3-phenyl-1H-pyrazole-5-carboxamide]"
20,> 5.00,"Cc1ccc(C(=O)NCc2nn(-c3ccccc3)c3c2CN(C#N)C3)cc1 [Example 35, N-((5-Cyano-1-phenyl-1,4,5,6-tetrahydropyrrolo[3,4-c]pyrazol-3-yl)methyl)-4-methylbenzamide]"
21,> 5.00,"N#CN1Cc2[nH]nc(-c3ccc(OCc4ccccc4)cc3)c2C1 [Example 37, 3-(4-(Benzyloxy)phenyl)-4,6-dihydropyrrolo[3,4-c]pyrazole-5(1H)-carbonitrile]"
22,> 5.00,"N#Cc1cccc(-c2n[nH]c3c2CN(C#N)C3)c1 [Example 38, 3-(3-Cyanophenyl)-4,6-dihydropyrrolo[3,4-c]pyrazole-5(1H)-carbonitrile]"

# — patent US11306096B2, “4,6 dihydropyrrolo [3,4-C] pyrazole-5 (1H)-carbonitrile derivates for treating cancer” (MISSION THERAPEUTICS LIMITED, priority 2016, dated 2022)
